{"source": "patent US11458099B2", "about": "“Inhalable antimicrobial particles and methods of making the same” (The Penn State Research Foundation, priority 2017, dated 2022)", "key": {"[1]": {"experiment": "Cargo release from nanogels by dialysis into 37° C. PBS", "type": "physicochemical", "details": "from N:P 10 nanogel carrier", "description": "Loaded BNCs in DI water were injected into 300 kDa MWCO dialysis tubing. The tubing was submerged in a 30× (by volume) bath of PBS. At predetermined time points, multiple samples (n≥3) were collected from multiple locations throughout the bath. These samples were pooled and release was characterized in the same method used for assessing initial loading. Before each measurement, volume was adjusted to that of the initial bath to ensure concentration consistency.\nNext, physiologic release of the encapsulated cargo was assessed by loading each nanogel formulation into a dialysis cassette and suspending it in a release media of 37° C. PBS. The concentration of loaded drug or GFP liberated to the dialysis media was then monitored as a function of time via UV-Vis or fluorescence spectroscopy, respectively. […] The majority of encapsulated protein (>75%) was retained within the nanogel carrier for the first 24 hours, followed by a rapid release phase that occurred between 24 and 72 hours."}, "[2]": {"system": "growing MTb", "experiment": "KKL-35 viability of growing MTb cultures, plating assay", "type": "cell-based, Mycobacterium tuberculosis", "details": "FIG. 5A"}, "[3]": {"experiment": "physchem", "details": "water"}, "[4]": {"system": "dormant persister cells (MTb)", "experiment": "KKL-35 viability of non-replicating MTb, Wayne model", "type": "cell-based, Mycobacterium tuberculosis", "details": "3 days, FIG. 5B"}, "[5]": {"system": "human HeLa cells"}, "[6]": {"system": "S. aureus (+)", "experiment": "MIC of VAN, NGVAN, NG (broth dilution)", "type": "cell-based, Staphylococcus aureus", "details": "S. aureus vs four gram-negative pathogens", "description": "(§1) 2× Dilutions of treatments in broth were plated into a U-bottom 96 well plate. Overnight cultures of Pseudomonas aeruginosa, Escherichia coli, Acinetobacter baumannii, Salmonella enterica and Staphylococcus aureus were incubated in cation adjusted Mueller-Hinton broth as advised by CLSI. Bacteria were diluted to an OD600 of 0.002 and plated in a 1:1 volume ratio with the treatments. These cultures were incubated overnight and MIC values were assessed by visual evaluation of growth inhibition when compared to untreated samples."}, "[7]": {"system": "panel of gram-negative and gram-positive bacterial pathogens", "experiment": "Antibacterial activity against the whole panel", "type": "cell-based", "details": "four different gram-negative pathogens; highest concentration tested", "description": "as §1\nNext, the antibacterial activity of VAN-loaded nanogels were evaluated against a panel of gram-negative and gram-positive bacterial pathogens (Table 5). It is important to note that clinical use of VAN is generally excluded to gram-positive infections as most gram-negative pathogens are innately resistant to the drug. This is due to the thick outer membrane of gram-negative bacteria which prevents the large glycopeptide drug from diffusing into the cell wall and reaching its enzymatic target."}, "[8]": {"system": "E. coli (−)", "experiment": "MIC of VAN, NGVAN, NG (broth dilution)", "type": "cell-based", "details": "Escherichia coli, drug or equivalent concentration of drug loaded into nanogels", "description": "as §1"}, "[9]": {"system": "A. baumannii (−)", "experiment": "MIC of VAN, NGVAN, NG (broth dilution)", "type": "cell-based", "details": "Acinetobacter baumannii, read-out: MIC of VAN", "description": "as §1"}, "[10]": {"system": "S. enterica (−)", "experiment": "MIC of VAN, NGVAN, NG (broth dilution)", "type": "cell-based", "details": "Salmonella enterica, drug or equivalent concentration of drug loaded into nanogels", "description": "as §1"}, "[11]": {"system": "P. aeruginosa (−)", "experiment": "MIC of VAN, NGVAN, NG (broth dilution)", "type": "cell-based", "details": "Pseudomonas aeruginosa, read-out: MIC of VAN", "description": "as §1"}, "[12]": {"system": "M. smegmatis", "experiment": "MIC of AMPs", "type": "cell-based", "details": "Gram +/−"}, "[13]": {"system": "A. baumannii", "experiment": "MIC of AMPs", "type": "cell-based", "details": "Gram −"}, "[14]": {"system": "P. aeruginosa", "experiment": "MIC of AMPs", "type": "cell-based", "details": "Gram −"}, "[15]": {"system": "B. anthrax", "details": "Gram +"}, "[16]": {"system": "S. enterica", "experiment": "MIC of AMPs", "type": "cell-based", "details": "Gram −"}, "[17]": {"system": "H. influenzae", "experiment": "MIC of AMPs", "type": "cell-based", "details": "Gram −"}, "[18]": {"system": "MR S. aureus", "details": "Gram +"}, "[19]": {"system": "MS S. aureus", "experiment": "MIC of AMPs", "type": "cell-based", "details": "Gram +"}, "[20]": {"system": "M. tuberculosis", "details": "Gram +/−"}, "[21]": {"system": "THP-1 human macrophage control cell line", "details": "selectivity index at IC90, MTb over THP-1 human macrophage control cell line; cited from earlier work"}, "[22]": {"system": "M. smegmatis", "details": "minimum concentration inhibiting 90% culture growth; cited from earlier work"}, "[23]": {"system": "M. tuberculosis", "details": "minimum concentration inhibiting 90% culture growth; cited from earlier work"}}, "note": "Ends that are not written are not given here.", "data": [{"compound": "COc1cccc2c1C(=O)c1c(O)c3c(c(O)c1C2=O)C[C@@](O)(C(=O)CO)C[C@@H]3O[C@H]1C[C@H](N)[C@H](O)[C@H](C)O1", "note": "[DOX, Doxorubicin]", "values": [{"measurement": "time to complete release", "setting": "[1]", "result": 48, "unit": "h"}, {"measurement": "zero-order release rate", "setting": "[1]", "result": "~4", "unit": "%/hour"}]}, {"compound": "O=C(Nc1nnc(-c2ccc(F)cc2)o1)c1ccc(Cl)cc1", "note": "[KKL-35, 4-chloro-N-(5-(4-fluorophenyl)-1,3,4-oxadiazol-2-yl)benzamide]", "values": [{"measurement": "IC towards growing MTb", "setting": "[2]", "result": "< 1.6", "unit": "µg/mL"}, {"measurement": "solubility", "setting": "[3]", "result": 500, "unit": "µg/mL"}, {"measurement": "IC towards dormant persister cells", "setting": "[4]", "result": "< 1.6", "unit": "µg/mL"}, {"measurement": "IC towards human HeLa cells", "setting": "[5]", "result": "> 500", "unit": "µg/mL"}]}, {"compound": "CN[C@H](CC(C)C)C(=O)N[C@H]1C(=O)N[C@@H](CC(N)=O)C(=O)N[C@H]2C(=O)N[C@H]3C(=O)N[C@H](C(=O)N[C@H](C(=O)O)c4cc(O)cc(O)c4-c4cc3ccc4O)[C@H](O)c3ccc(c(Cl)c3)Oc3cc2cc(c3O[C@@H]2O[C@H](CO)[C@@H](O)[C@H](O)[C@H]2O[C@H]2C[C@](C)(N)[C@H](O)[C@H](C)O2)Oc2ccc(cc2Cl)[C@H]1O", "note": "[VAN, Vancomycin]", "values": [{"measurement": "times more effective in killing S. aureus than gram-negative pathogens", "setting": "[6]", "result": "> 30", "unit": "times"}, {"measurement": "concentration giving inhibition of bacterial growth", "setting": "[7]", "result": 144, "unit": "µg/mL"}, {"measurement": "MIC", "setting": "[8]", "result": 144, "unit": "µg/mL"}, {"measurement": "MIC", "setting": "[9]", "result": 144, "unit": "µg/mL"}, {"measurement": "MIC", "setting": "[10]", "result": 144, "unit": "µg/mL"}, {"measurement": "MIC", "setting": "[11]", "result": 144, "unit": "µg/mL"}, {"measurement": "time to 90% drug release", "setting": "[1]; first order kinetics", "result": "≤ 4", "unit": "h"}]}, {"compound": "H-KRWHWWRRHWVVW-NH2 [SMAS-1]", "values": [{"measurement": "MIC", "setting": "[12]", "result": 5, "unit": "µM"}, {"measurement": "MIC", "setting": "[13]", "result": 50, "unit": "µM"}, {"measurement": "MIC", "setting": "[14]", "result": 50, "unit": "µM"}, {"measurement": "MIC", "setting": "[15]", "result": ">80", "unit": "µM"}, {"measurement": "MIC", "setting": "[16]", "result": 80, "unit": "µM"}, {"measurement": "MIC", "setting": "[17]", "result": 80, "unit": "µM"}, {"measurement": "MIC", "setting": "[18]", "result": ">80", "unit": "µM"}, {"measurement": "MIC", "setting": "[19]", "result": ">80", "unit": "µM"}, {"measurement": "MIC", "setting": "[20]", "result": 3, "unit": "µM"}]}, {"compound": "H-WKWLKKWIK-NH2 [Entry 1]", "values": [{"measurement": "MIC", "setting": "[12]", "result": 20, "unit": "µM"}, {"measurement": "MIC", "setting": "[13]", "result": 25, "unit": "µM"}, {"measurement": "MIC", "setting": "[14]", "result": 10, "unit": "µM"}, {"measurement": "MIC", "setting": "[15]", "result": 10, "unit": "µM"}, {"measurement": "MIC", "setting": "[16]", "result": 40, "unit": "µM"}, {"measurement": "MIC", "setting": "[17]", "result": 80, "unit": "µM"}, {"measurement": "SI90", "setting": "[21]", "result": 21.3}, {"measurement": "IC90", "setting": "[22]", "result": 1.9, "unit": "µM"}, {"measurement": "IC90", "setting": "[23]", "result": 1.1, "unit": "µM"}, {"measurement": "MIC", "setting": "[18]", "result": ">80", "unit": "µM"}, {"measurement": "MIC", "setting": "[19]", "result": ">80", "unit": "µM"}, {"measurement": "MIC", "setting": "[20]", "result": 20, "unit": "µM"}]}, {"compound": "ILRWKWRWWRWRR-NH2 [Entry 2, cationic antimycobacterial peptide, amidated C-terminus]", "values": [{"measurement": "SI90", "setting": "[21]", "result": 21.3}, {"measurement": "IC90", "setting": "[22]", "result": 2.4, "unit": "µM"}]}, {"compound": "KRWWKWWRR-NH2 [Entry 3]", "values": [{"measurement": "MIC", "setting": "[12]", "result": 20, "unit": "µM"}, {"measurement": "MIC", "setting": "[13]", "result": 80, "unit": "µM"}, {"measurement": "MIC", "setting": "[14]", "result": 20, "unit": "µM"}, {"measurement": "MIC", "setting": "[15]", "result": 80, "unit": "µM"}, {"measurement": "MIC", "setting": "[16]", "result": 80, "unit": "µM"}, {"measurement": "MIC", "setting": "[17]", "result": 80, "unit": "µM"}, {"measurement": "SI90", "setting": "[21]", "result": 51.2}, {"measurement": "IC90", "setting": "[22]", "result": 4.9, "unit": "µM"}, {"measurement": "IC90", "setting": "[23]", "result": 3.1, "unit": "µM"}, {"measurement": "MIC", "setting": "[18]", "result": 80, "unit": "µM"}, {"measurement": "MIC", "setting": "[19]", "result": 80, "unit": "µM"}, {"measurement": "MIC", "setting": "[20]", "result": 10, "unit": "µM"}]}, {"compound": "RRWWRWVVW-NH2 [Entry 4]", "values": [{"measurement": "MIC", "setting": "[12]", "result": 20, "unit": "µM"}, {"measurement": "MIC", "setting": "[13]", "result": 10, "unit": "µM"}, {"measurement": "MIC", "setting": "[14]", "result": 80, "unit": "µM"}, {"measurement": "MIC", "setting": "[15]", "result": 20, "unit": "µM"}, {"measurement": "MIC", "setting": "[16]", "result": 80, "unit": "µM"}, {"measurement": "MIC", "setting": "[17]", "result": 40, "unit": "µM"}, {"measurement": "SI90", "setting": "[21]", "result": 32.0}, {"measurement": "IC90", "setting": "[22]", "result": 11.4, "unit": "µM"}, {"measurement": "IC90", "setting": "[23]", "result": 5.6, "unit": "µM"}, {"measurement": "MIC", "setting": "[18]", "result": 20, "unit": "µM"}, {"measurement": "MIC", "setting": "[19]", "result": 20, "unit": "µM"}, {"measurement": "MIC", "setting": "[20]", "result": 20, "unit": "µM"}]}]}
